Measurements reported in PubChem BioAssay AID2060486 (Molecular Pharmacology Branch, DTP, NCI, 2025).

System: IGROV1 complex spheroids (HUVEC, MSC), viability % test/control
Assay: Anticancer human tumor IGROV1 cell line growth inhibition [GQUAD];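 further: spheroids exposed to compounds for 7 days before readout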;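 on viability, T/C: 100% = DMSO vehicle control viability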
Conditions: for IC50: curve of first compound; for viability, T/C: stronger effect = lower value
Summary of the method: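 Multi-cell-type spheroids of tumor cells with HUVEC and mesenchymal stem cells, treated with drug combinations. Concentrations descend in half-log steps from near clinical Cmax, or from 10 microM where Cmax is unknown; viability read-out.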

[1] = second compound 0.0316 µM, first compound 0.0316 µM
[2] = second compound 0.0316 µM, first compound 0.316 µM
[3] = second compound 0.1 µM, first compound 0.0316 µM
[4] = second compound 0.1 µM, first compound 0.316 µM
[5] = second compound 0.316 µM, first compound 0.0316 µM
[6] = second compound 0.316 µM, first compound 0.316 µM
[7] = second compound 1 µM, first compound 0.0316 µM
[8] = second compound 1 µM, first compound 0.316 µM
[9] = second compound 3.16 µM, first compound 0.0316 µM
[10] = second compound 3.16 µM, first compound 0.316 µM
[11] = second compound 10 µM, first compound 0.0316 µM
[12] = second compound 10 µM, first compound 0.316 µM
[13] = second compound 0.0316 µM, first compound 0.1 µM
[14] = second compound 0.0316 µM, first compound 1 µM
[15] = second compound 0.0316 µM, first compound 3.16 µM
[16] = second compound 0.0316 µM, first compound 10 µM
[17] = second compound 0.1 µM, first compound 0.1 µM
[18] = second compound 0.1 µM, first compound 1 µM
[19] = second compound 0.1 µM, first compound 3.16 µM
[20] = second compound 0.1 µM, first compound 10 µM
[21] = second compound 0.316 µM, first compound 0.1 µM
[22] = second compound 0.316 µM, first compound 1 µM
[23] = second compound 0.316 µM, first compound 3.16 µM
[24] = second compound 0.316 µM, first compound 10 µM
[25] = second compound 1 µM, first compound 0.1 µM
[26] = second compound 1 µM, first compound 1 µM
[27] = second compound 1 µM, first compound 3.16 µM
[28] = second compound 1 µM, first compound 10 µM
[29] = second compound 3.16 µM, first compound 0.1 µM
[30] = second compound 3.16 µM, first compound 1 µM
[31] = second compound 3.16 µM, first compound 3.16 µM
[32] = second compound 3.16 µM, first compound 10 µM
[33] = second compound 10 µM, first compound 0.1 µM
[34] = second compound 10 µM, first compound 1 µM
[35] = second compound 10 µM, first compound 3.16 µM
[36] = second compound 10 µM, first compound 10 µM

SMILES: CC[C@@]1(O)C(=O)OCc2c1cc1n(c2=O)Cc2cc3c(CN(C)C)c(O)ccc3nc2-1 + CN(C)c1ccc(Nc2c3ccc(NC(=O)CCN4CCCC4)cc3nc3cc(NC(=O)CCN4CCCC4)ccc23)cc1
- IC50 (second compound 0.0316 µM): 22.1 nM
- IC50 (second compound 0.1 µM): 24.5 nM
- IC50 (second compound 0.316 µM): 25 nM
- IC50 (second compound 1 µM): 22.8 nM
- IC50 (second compound 3.16 µM): 29.3 nM
- IC50 (second compound 10 µM): < 0.999 nM
- viability, T/C (second compound 0.0316 µM, first compound 0.000999 µM): 98.2%
- viability, T/C (second compound 0.0316 µM, first compound 0.00316 µM): 95.7%
- viability, T/C (second compound 0.0316 µM, first compound 0.00999 µM): 93.1%
- viability, T/C [1]: 30.5%
- viability, T/C (second compound 0.0316 µM, first compound 0.0999 µM): 12.2%
- viability, T/C [2]: 10.9%
- viability, T/C (second compound 0.1 µM, first compound 0.000999 µM): 98.1%
- viability, T/C (second compound 0.1 µM, first compound 0.00316 µM): 87.8%
- viability, T/C (second compound 0.1 µM, first compound 0.00999 µM): 86%
- viability, T/C [3]: 39.7%
- viability, T/C (second compound 0.1 µM, first compound 0.0999 µM): 13.5%
- viability, T/C [4]: 9.48%
- viability, T/C (second compound 0.316 µM, first compound 0.000999 µM): 94.5%
- viability, T/C (second compound 0.316 µM, first compound 0.00316 µM): 87.5%
- viability, T/C (second compound 0.316 µM, first compound 0.00999 µM): 91.8%
- viability, T/C [5]: 39.4%
- viability, T/C (second compound 0.316 µM, first compound 0.0999 µM): 12.4%
- viability, T/C [6]: 12.2%
- viability, T/C (second compound 1 µM, first compound 0.000999 µM): 87.5%
- viability, T/C (second compound 1 µM, first compound 0.00316 µM): 81.7%
- viability, T/C (second compound 1 µM, first compound 0.00999 µM): 75.9%
- viability, T/C [7]: 40.5%
- viability, T/C (second compound 1 µM, first compound 0.0999 µM): 9.84%
- viability, T/C [8]: 12.7%
- viability, T/C (second compound 3.16 µM, first compound 0.000999 µM): 70.5%
- viability, T/C (second compound 3.16 µM, first compound 0.00316 µM): 89.4%
- viability, T/C (second compound 3.16 µM, first compound 0.00999 µM): 77.4%
- viability, T/C [9]: 48.1%
- viability, T/C (second compound 3.16 µM, first compound 0.0999 µM): 13.5%
- viability, T/C [10]: 10.8%
- viability, T/C (second compound 10 µM, first compound 0.000999 µM): 42.9%
- viability, T/C (second compound 10 µM, first compound 0.00316 µM): 35%
- viability, T/C (second compound 10 µM, first compound 0.00999 µM): 37%
- viability, T/C [11]: 19.1%
- viability, T/C (second compound 10 µM, first compound 0.0999 µM): 9.45%
- viability, T/C [12]: 6.49%

SMILES: COc1cc(C2c3cc4c(cc3C(OC3OC5COC(C)OC5C(O)C3O)C3COC(=O)C23)OCO4)cc(OC)c1O (stereo not drawn) + CN(C)c1ccc(Nc2c3ccc(NC(=O)CCN4CCCC4)cc3nc3cc(NC(=O)CCN4CCCC4)ccc23)cc1
- IC50 (second compound 0.0316 µM): 138 nM
- IC50 (second compound 0.1 µM): 109 nM
- IC50 (second compound 0.316 µM): 93.5 nM
- IC50 (second compound 1 µM): 84.1 nM
- IC50 (second compound 3.16 µM): 98.5 nM
- IC50 (second compound 10 µM): < 31.6 nM
- viability, T/C [1]: 88.3%
- viability, T/C [13]: 59.8%
- viability, T/C [2]: 25.1%
- viability, T/C [14]: 13.8%
- viability, T/C [15]: 9.71%
- viability, T/C [16]: 6.8%
- viability, T/C [3]: 90.7%
- viability, T/C [17]: 51.9%
- viability, T/C [4]: 24.9%
- viability, T/C [18]: 11.9%
- viability, T/C [19]: 9.44%
- viability, T/C [20]: 6.65%
- viability, T/C [5]: 88%
- viability, T/C [21]: 47.6%
- viability, T/C [6]: 23.2%
- viability, T/C [22]: 11.3%
- viability, T/C [23]: 9.49%
- viability, T/C [24]: 5.93%
- viability, T/C [7]: 83.4%
- viability, T/C [25]: 44.5%
- viability, T/C [8]: 18.1%
- viability, T/C [26]: 12.9%
- viability, T/C [27]: 9.59%
- viability, T/C [28]: 5.75%
- viability, T/C [9]: 85.2%
- viability, T/C [29]: 49.4%
- viability, T/C [10]: 24.6%
- viability, T/C [30]: 11%
- viability, T/C [31]: 9.22%
- viability, T/C [32]: 5.74%
- viability, T/C [11]: 50.3%
- viability, T/C [33]: 22.1%
- viability, T/C [12]: 13.1%
- viability, T/C [34]: 7.21%
- viability, T/C [35]: 6.58%
- viability, T/C [36]: 4.87%

SMILES: COc1cccc2c1C(=O)c1c(O)c3c(c(O)c1C2=O)CC(O)(C(=O)CO)CC3OC1CC(N)C(O)C(C)O1 (stereo not drawn) + CN(C)c1ccc(Nc2c3ccc(NC(=O)CCN4CCCC4)cc3nc3cc(NC(=O)CCN4CCCC4)ccc23)cc1
- IC50 (second compound 0.0316 µM): 49.4 nM
- IC50 (second compound 0.1 µM): 49 nM
- IC50 (second compound 0.316 µM): 39.9 nM
- IC50 (second compound 1 µM): 32.4 nM
- IC50 (second compound 3.16 µM): 41.3 nM
- IC50 (second compound 10 µM): < 31.6 nM
- viability, T/C [1]: 67.7%
- viability, T/C [13]: 21.5%
- viability, T/C [2]: 9.86%
- viability, T/C [14]: 3.36%
- viability, T/C [15]: 0.13%
- viability, T/C [16]: 1.04%
- viability, T/C [3]: 67.9%
- viability, T/C [17]: 20.4%
- viability, T/C [4]: 9.01%
- viability, T/C [18]: 3.31%
- viability, T/C [19]: 0.07%
- viability, T/C [20]: 1.06%
- viability, T/C [5]: 57.2%
- viability, T/C [21]: 21.7%
- viability, T/C [6]: 9.64%
- viability, T/C [22]: 3.48%
- viability, T/C [23]: 0.07%
- viability, T/C [24]: 1.01%
- viability, T/C [7]: 50.5%
- viability, T/C [25]: 25.7%
- viability, T/C [8]: 7.36%
- viability, T/C [26]: 2.77%
- viability, T/C [27]: 0.08%
- viability, T/C [28]: 0.98%
- viability, T/C [9]: 59.6%
- viability, T/C [29]: 18.7%
- viability, T/C [10]: 8.4%
- viability, T/C [30]: 3.44%
- viability, T/C [31]: 0.13%
- viability, T/C [32]: 0.94%
- viability, T/C [11]: 33.5%
- viability, T/C [33]: 15.6%
- viability, T/C [12]: 5.82%
- viability, T/C [34]: 3.29%
- viability, T/C [35]: 0.17%
- viability, T/C [36]: 1.15%

SMILES: Nc1ccn(C2OC(CO)C(O)C2(F)F)c(=O)n1 (stereo not drawn) + CN(C)c1ccc(Nc2c3ccc(NC(=O)CCN4CCCC4)cc3nc3cc(NC(=O)CCN4CCCC4)ccc23)cc1
- IC50 (second compound 0.0316 µM): < 31.6 nM
- IC50 (second compound 0.1 µM): < 31.6 nM
- IC50 (second compound 0.316 µM): < 31.6 nM
- IC50 (second compound 1 µM): < 31.6 nM
- IC50 (second compound 3.16 µM): < 31.6 nM
- IC50 (second compound 10 µM): < 31.6 nM
- viability, T/C [1]: 11.5%
- viability, T/C [13]: 6.58%
- viability, T/C [2]: 6.05%
- viability, T/C [14]: 6.75%
- viability, T/C [15]: 6.08%
- viability, T/C [16]: 4.2%
- viability, T/C [3]: 12.7%
- viability, T/C [17]: 5.68%
- viability, T/C [4]: 6.81%
- viability, T/C [18]: 6.8%
- viability, T/C [19]: 5.93%
- viability, T/C [20]: 4.32%
- viability, T/C [5]: 13.1%
- viability, T/C [21]: 5.27%
- viability, T/C [6]: 6.2%
- viability, T/C [22]: 6.03%
- viability, T/C [23]: 5.63%
- viability, T/C [24]: 6.07%
- viability, T/C [7]: 11.6%
- viability, T/C [25]: 5.93%
- viability, T/C [8]: 7.47%
- viability, T/C [26]: 6.02%
- viability, T/C [27]: 6.39%
- viability, T/C [28]: 5.81%
- viability, T/C [9]: 10.2%
- viability, T/C [29]: 5.96%
- viability, T/C [10]: 6.33%
- viability, T/C [30]: 5.69%
- viability, T/C [31]: 5.78%
- viability, T/C [32]: 4.9%
- viability, T/C [11]: 6.83%
- viability, T/C [33]: 4.85%
- viability, T/C [12]: 4.16%
- viability, T/C [34]: 4.94%
- viability, T/C [35]: 4.47%
- viability, T/C [36]: 4.53%
